This passage reports MCC, MIC and inhibition results from US5356886A, “Antiviral phosphono-alken derivatives of purines” (Beecham Group p.l.c., priority 1990, dated 1994).

Values after ≈ are worked out from the molar mass of the structure shown.

Holding throughout (assay type): cell-based
The nature of series [1]: Drug-induced cytotoxicity for the MRC-5 cell monolayers in the CMV test. To be noted: human, mrc-5 cells, read-out: concentration at which cytotoxicity was noted. As to the method:
MRC-5 cells were grown to confluence in 24 well multi-dishes (well diameter=1.5 cm). The drained cell monolayers were each infected with approximately 50 infectious particles of cytomegalovirus (CMV; AD-169 strain) in 100 μl of phosphate-buffered saline. The virus was adsorbed for 1 hour at room temperature. After adsorption, residual inoculum was removed from each well and replaced with 1 ml of Eagle's MEM containing 10% heat inactivated foetal calf serum and 0.9% agarose (A37). Once the agarose had set, dilutions of the test compound, which had been prepared in Eagle's MEM (containing 10% heat-inactivated calf serum), were added, each well receiving 1 ml of liquid overlay. The test compound was diluted to give the following series of concentrations: 200, 60, 20, 6 . . . 0.06 μg/ml; final concentrations in the assay range, therefore, between 100 μg/ml and 0.03 μg/ml. The infected cultures were incubated at 37° C. in a humidified atmosphere containing 5% CO2 until plaques were clearly visible (about 12 days). The cultures are fixed in formol saline, the agarose overlays were carefully washed off, and then the cell monolayers were stained with carbol fuchsin. A stereo microscope was used to count plaques. […] In addition, the monolayers were examined for evidence of drug-induced cytotoxicity; the minimum concentration at which cytotoxicity occurs was recorded.

The next series relates to FIV. In words: Test for Feline Immunodeficiency Virus (FIV Glasgow 8) in Crandell Feline Kidney cells. As to conditions: read-out: MIC (minimum concentration of drug inhibiting syncitial production). As to the method:
Drug stocks were diluted to the appropriate concentration, in medium (e.g. 10 mg/ml to 200 μg/ml). 150 μl of each drug was dispersed in triplicate, across the top row of a microtitre plate (150 μl of media for virus and cell control, vc and cc). 100 μl of medium was dispersed into all other wells. The wells were serially diluted moving down the plate, removing 50 μl from each well and transferring to the next row. 50 μl was discarded from the bottom wells.
Trypsinisation was carried out from a confluent cell monolayer of Crandell Feline Kidney cells, in 10% trypsin, followed by resuspension in media at 1×10^6 per ml, ensuring that a single cell suspension is achieved. (Media: 90% 1×RPMI, 25 mM hepes buffer; 10% Foetal calf serum; 2% Glutamine; 2% penecillin/streptomycin.)
FIV Glasgow 8 virus was diluted to 4× the required virus challenge in medium (40 TCID50 /ml). The virus infected medium was mixed with an equal volume of cell suspension, 100 μl of which was aliquoted into each well of the drug plate, except cell control. 100 μl of cell suspension at 5×10^4 per ml was added to the latter. This gives a final cell concentration of 2.5×10^4 per ml, and drug range 100-0.03 μg/ml. The plates were incubated at 37° C., 5% CO2 in an air humidified incabator for 11-14 days. The cells were fixed by immersing the plates in formoli saline (10% formaldehyde; 10% 1.5M NaCl; 80% water) for 1 hour minimum. The cells were stained with 10% crystal violet for 15 minutes.
The assay was scored by looking for presence of syncitia and, virus induced cytopathic effect in the cell monolayers, under a microscope. Results are given as the minimum concentration of drug inhibiting syncitial production, minimum inhibitory concentration, MIC.

Series [2] has as its system HIV. In words: HIV Suppression test, viral antigen (core protein p24, sandwich ELISA) in peripheral human lymphocytes. As to conditions: Human immunodeficiency virus 1, Lymphocyte, 96 h; Concn. 0.1 μM; read-out: % Inhibition on Day 4 after infection, Viral Antigen. The procedure: (§1) Peripheral human lymphocytes were prepared, cultivated, and harvested as above. Following the determination of the lymphocyte surface markers, unstimulated and mitogen stimulated cells were combined in a ratio of 1:2.
(§2) Under safety conditions these cells are infected with a standard preparation of HIV. The cells are sedimented by centrifugation. The supernatant was discarded and cells were resuspended in the HIV inoculum.
(§3) This inoculum is a liquid suspension of HIV-1 strain virus, pretested and adjusted to a titer that results in a synthesis of viral core protein p24 of >100 ng/ml at day four following infection of human lymphocytes according to the protocol.
(§4) 3×10^8 lymphocytes were resuspended in 1 ml HIV inoculum and incubated at 37° C. for 60 minutes. Subsequently, the cells were washed two times with 50 ml of culture medium and resuspended in culture medium containing 10 units/ml of human recombinant interleukin-2 to yield a cell concentration of 2×10^6 cells/ml. 100 μof this cell suspension was added to each well of the microtiter plates containing the diluted solutions of the compounds. The microtiter plates were cultivated in an incubator with a humidified atmosphere and 5% CO2 at 37° C.
(§5) Accordingly, a fraction of lymphocytes was mock-infected with the same virus preparation that was heat inactivated (30 minutes at 56° C.) prior to infection.
(§6) On each of the days 2,3 and 4 post infection one of the microtiter plates which had been established in triplicate was prepared for determination of viral replication. Viral RNA is determined within the cells whereas the viral core protein p24 was detected in the supernatant of the lymphocyte culture.
(§7) Accordingly, 150 μl of supernatant were removed from each well and transferred to the well of a microtiter plate containing 50 μl/well of SDS (sodium dodecylsulfate, 0.08%). These plates were stored frozen. 50 μl of stop solution (1% SDS, 20 mM sodium acetate, pH 5.0, and 200 μg/ml heparin) were added to the cells remaining in each well. The plates were stored frozen.
(§8) The concentration of p24 synthesized by the HIV infected cells was determined by means of a sandwich ELISA, while the concentration of viral RNA was quantitated by nucleic acid hybridisation, using a ^32 P-labelled DNA probe for the gag/pol region of the viral genome. Absolute levels of viral antigen and RNA in drug treated samples were compared with untreated, virus-infected controls and the percentage inhibition calculated.
For orientation: ELISA stands for enzyme-linked immunosorbent assay.

Series [3] has as its system HIV. In words: HIV Suppression test, viral RNA (nucleic acid hybridisation) in peripheral human lymphocytes. As to conditions: Human immunodeficiency virus 1, Lymphocyte, 96 h; Concn. 0.1 μM; read-out: % Inhibition on Day 4 after infection, Viral RNA. As to the method: as §1, §2, §3, §4, §5, §6, §7, §8

The term inhibition denotes how much of the control response was suppressed. For the molecule `Nc1nc2c(ncn2OCC/C=C/P(=O)(O)O)c(=O)[nH]1` [Example 1, (E)-9-(4-phosphonobut-3-enyloxy)guanine], the MCC in series [1] was 10 µg/mL. The MIC in the series with FIV stood at 0.01 µg/mL (≈ 0.0332 µM). Besides, the inhibition at 0.1 µM in the series with HIV [2] and with HIV [3] was 93% throughout.
